Experimental data published in patent US20070010438A1, “Tumor treatment using beta-sheet peptides and radiotherapy” (priority 2005, published 2007).

What was measured:
[1] = test system: EC; test: EC proliferation, 3[H]thymidine incorporation assay (Table 3); assay type: cell-based, human
Method: EC proliferation was measured using a ^3[H]thymidine incorporation assay. EC were seeded in flatbottomed 96-well tissue culture plates (5000 cells/well) and grown for 3 days, in culture medium. In some cultures the proliferation of EC was enhanced by incubation with 10 ng/ml bFGF. During the last 6 hours of the assay, the culture was pulsed with 0.5 μCi [methyl-3 H]thymidine/well. Results are expressed as the arithmetic mean counts per minute (cpm) of triplicate cultures.

[2] = test system: intercellular adhesion molecule-1 (ICAM-1); test: ICAM-1 expression on bFGF-treated EC (flow cytometry, Northern blot); assay type: cell-based, human; details: for bFGF mediated downregulation of ICAM-1: 100 μg/ml added simultaneously with 10 ng/ml bFGF, 3 days
Method: In a first series of experiments, PF4 and βpep peptides were tested for their ability to prevent bFGF (fibroblast growth factor) mediated downregulation of ICAM-1. […] Simultaneously 100 μg/ml of each PF4, βpep-14, βpep-16, or medium was added. Mean ICAM-1 fluorescence intensity values were determined.
Since the in vivo situation of tumor-associated EC involves the low expression or even absence of ICAM-1, the next set of experiments aimed to study the ability to re-induce ICAM-1 expression after bFBF preincubation. […] In these experiments, HUVEC were pretreated for 3 days with bFGF, subsequently PF4 was added for 3 days and, where indicated in the last 16 hours of culture 4 ng/ml TNF(X was added. Human umbilical vein derived endothelial cells (HUVEC) were harvested from normal human umbilical cords by perfusion with 0.125% trypsin/EDTA. Cells were cultured in fibronectin (FN) coated tissue culture flasks in culture medium (RPMI-1640 with 20% human serum (HS), supplemented with 2 mM glutamine and 100 U/ml penicillin and 0.1 mg/ml streptomycin). Immunofluorescence using indirect PE-conjugated reagents required three separate incubations. 1×10^5 EC were fixed for 1 hour in 1% paraformaldehyde, resuspended in 20 μl appropriately diluted Mab and incubated for 1 hour on ice. Subsequently, cells were washed two times in PBS/BSA (0.1%) and incubated for another 30 minutes with biotinylated rabbit-anti-mouse Ig (Dako, Glostrup, Denmark). After another 2 washings, cells were incubated with streptavidin-phycoerythrin conjugate (Dako). Stained cells were analyzed on a FACScan flowcytometer. Data analysis was performed using PCLysys software (Becton Dickinson, Mountain View, Calif.). Statistical significance of observed differences was determined using the Student's t-test.
The anergy of EC to stimulation with inflammatory cytokines was the subject of additional experiments. For these experiments, HUVEC (human vascular endothelial cells) were pretreated with 10 ng/ml bFGF for 3 days. Subsequently, cells are subcultured for 3 days with […] in the presence of PF4. For the last 16 hours of the culture 4 ng/ml TNF-α was added to induce upregulation of ICAM-1. […] The regulation of ICAM-1 at the protein level was confirmed in Northern blot analysis for detection of ICAM-1 message. In these experiments, HUVEC were cultured for 3 days with bFGF and treated for the last 4 and 24 hours with PF4 (100 μg/ml). TNF-α was added 2 hours before isolation of RNA. RNA from a subconfluent EC cultures (75 cm^2 Petri-dishes) incubated with bFGF for different time-points was isolated using an RNA-zol kit (Campro Scientific, Houston, Tex.). Total RNA (10 μg) for each sample was separated in a 0.8% formaldehyde-denaturing gel, transferred to nitrocellulose (Hybond N+, Amersham International, Amersham, UK) and hybridized to a ^32P-labelled 1.9 Kb c-DNA probe, containing the functional sequence of the human ICAM-1 gene (a gift from Dr. B. Seed). Membranes were washed at a high stringency in 0.2×SSC, 0.1% SDS at 50° C. for 1 hour. Filters were exposed to X-ray films (Kodak X-omat, Eastman Kodak Company, Rochester, N.Y.) using an intensifying screen at −80° C. for not less than 12 hours. Autoradiograms were subjected to scanning using a laser densitometer (Model GS670, Bio-Rad, Hercules, Calif.) and data were analysed with the Molecular Analyst PCTM software. The intensity of the major ICAM-1 mRNA transcript was normalized with respect to actin mRNA expression used as a control.

[3] = test system: endothelial cell (FBHEC, HUVEC)
Method: β-sheet peptides βpep 1-24 were tested in an endothelial cell proliferation assay using ^3H-thymidine incorporation.

[4] = test system: HUVEC; details: PF4 100 μg/ml, bFGF 10 ng/ml
Method: Functional impact for the observed phenomena was provided by leukocyte/EC adhesion assays as described earlier (Griffloen et al. Cancer Res. 56, 1111-1117 (1996)). […] PHA-activated peripheral blood T lymphocyte were adhered for 1 hour at 37° C. to TNF-α (4 ng/ml), bFGF (10 ng/ml) and PF4 (100 μg/ml) treated, or control (HUVEC). Non-adhering cells were removed and adhered cells were enumerated by an inverted microscope. Values of one representative experiment out of three are expressed as numbers of adhered cells per high power field. Statistical significance is determined by the Student's t-test.

[5] = test system: SCK tumors; test: Radiosensitization test of SCK tumors, i.p. injections plus 10 Gy on days 0 and 1
Method: On days 0 and 1 the injections were given 2 hours prior to tumor irradiation (10 Gy each day) (Mauceri et al., Nature 394, 287-91 (1998)).
Tumor volume was determined by measuring the diameters of the tumor using metric-scale calipers (Scienceware; Pequannock, N.J.) and solving the equation to determine the volume of a spheroid: (a^2×b×Π)/6, where ‘a’ is the width and ‘b’ is the length of the tumor.
Growth delay was calculated by subtracting the average time for control tumors to grow three-fold in volume from the time required for treated tumors to increase in volume by 3-fold from the day of radiation.

[6] = second expt 2, 1 μg/ml, 10 ng/ml bFGF, medium 52808 ± 4092
[7] = second expt 2, 1 μg/ml, no bFGF, medium 6780 ± 713
[8] = second expt 2, 10 μg/ml, 10 ng/ml bFGF, medium 52808 ± 4092
[9] = second expt 2, 10 μg/ml, no bFGF, medium 6780 ± 713
[10] = second expt 2, 100 μg/ml, 10 ng/ml bFGF, medium 52808 ± 4092
[11] = second expt 2, 100 μg/ml, no bFGF, medium 6780 ± 713
[12] = first expt 2, 1 μg/ml, 10 ng/ml bFGF, medium 29079 ± 2506
[13] = first expt 2, 1 μg/ml, no bFGF, medium 14296 ± 2490
[14] = first expt 2, 10 μg/ml, 10 ng/ml bFGF, medium 29079 ± 2506
[15] = first expt 2, 10 μg/ml, no bFGF, medium 14296 ± 2490
[16] = first expt 2, 100 μg/ml, 10 ng/ml bFGF, medium 29079 ± 2506
[17] = first expt 2, 100 μg/ml, no bFGF, medium 14296 ± 2490

O=C1CCC(N2C(=O)c3ccccc3C2=O)C(=O)N1 (stereo not shown) [thalidomide, reference compound]
EC growth in vitro [1]: do not affect EC growth in vitro | effect on ICAM-1 expression, other inhibitors of angiogenesis [2]: did not affect ICAM-1 expression

ANIKLSVEMKLFKRHLKWKIIVKLNDGRELSLD [βpep-8]
cell proliferation activity (control of endothelial cell proliferation) [3]: little cell proliferation activity

Platelet Factor 4 [PF4]
EC proliferation, (3H)-thymidine incorporation ([1]; expt 1, 1 μg/ml, 10 ng/ml bFGF, medium 28815 ± 1007): 28782 ± 815 cpm | EC proliferation, (3H)-thymidine incorporation ([1]; expt 1, 1 μg/ml, no bFGF, medium 4044 ± 206): 4656 ± 456 cpm | EC proliferation, (3H)-thymidine incorporation ([1]; expt 1, 10 μg/ml, 10 ng/ml bFGF, medium 28815 ± 1007): 23868 ± 402 cpm | EC proliferation, (3H)-thymidine incorporation ([1]; expt 1, 10 μg/ml, no bFGF, medium 4044 ± 206): 4066 ± 351 cpm | EC proliferation, (3H)-thymidine incorporation ([1]; expt 1, 100 μg/ml, 10 ng/ml bFGF, medium 28815 ± 1007): 4655 ± 421 cpm | EC proliferation, (3H)-thymidine incorporation ([1]; expt 1, 100 μg/ml, no bFGF, medium 4044 ± 206): 1651 ± 172 cpm | EC proliferation, (3H)-thymidine incorporation [1, 6]: 43524 ± 5318 cpm | EC proliferation, (3H)-thymidine incorporation [1, 7]: 6171 ± 1227 cpm | EC proliferation, (3H)-thymidine incorporation [1, 8]: 8337 ± 704 cpm | EC proliferation, (3H)-thymidine incorporation [1, 9]: 3547 ± 317 cpm | EC proliferation, (3H)-thymidine incorporation [1, 10]: 1654 ± 375 cpm | EC proliferation, (3H)-thymidine incorporation [1, 11]: 947 ± 170 cpm | bFGF mediated downregulation of ICAM-1 [2]: did not result in the loss of ICAM-1 expression | expression of ICAM-1 ([2]; 100 μg/ml alone): enhanced the expression of ICAM-1 | re-induction of ICAM-1 expression after bFGF preincubation ([2]; HUVEC pretreated 3 days with bFGF, then 100 μg/ml for 3 days in the presence of bFGF): reinduction of ICAM-1 | decreased inflammatory response (TNF-α induced ICAM-1) of angiogenic stimulated EC ([2]; bFGF-pretreated HUVEC, 4 ng/ml TNF-α for the last 16 hours): overcome | bFGF mediated inhibition of leukocyte adhesion to cultured HUVEC [4]: completely abolished

SIQDLNVSMKLFRKQAKWKIIAKLNDGRELSLD [βpep-16]
angiostatic as determined by EC proliferation in vitro [1]: angiostatic | EC proliferation, (3H)-thymidine incorporation [1, 12]: 35447 ± 2621 cpm | EC proliferation, (3H)-thymidine incorporation [1, 13]: 15039 ± 2020 cpm | EC proliferation, (3H)-thymidine incorporation [1, 14]: 33663 ± 2572 cpm | EC proliferation, (3H)-thymidine incorporation [1, 15]: 11881 ± 2545 cpm | EC proliferation, (3H)-thymidine incorporation [1, 16]: 7852 ± 875 cpm | EC proliferation, (3H)-thymidine incorporation [1, 17]: 4929 ± 749 cpm | EC proliferation, (3H)-thymidine incorporation [1, 6]: 47727 ± 447 cpm | EC proliferation, (3H)-thymidine incorporation [1, 7]: 7450 ± 737 cpm | EC proliferation, (3H)-thymidine incorporation [1, 8]: 44919 ± 2081 cpm | EC proliferation, (3H)-thymidine incorporation [1, 9]: 6148 ± 1370 cpm | EC proliferation, (3H)-thymidine incorporation [1, 10]: 27071 ± 3277 cpm | EC proliferation, (3H)-thymidine incorporation [1, 11]: 2669 ± 370 cpm | bFGF mediated downregulation of ICAM-1 [2]: complete block of bFGF-mediated downregulation

SIQDLNVSMKLFRKQAKWKLIVKLNDGRELSLD [βpep-14]
angiostatic as determined by EC proliferation in vitro [1]: angiostatic | EC proliferation, (3H)-thymidine incorporation [1, 12]: 28695 ± 1062 cpm | EC proliferation, (3H)-thymidine incorporation [1, 13]: 14184 ± 1775 cpm | EC proliferation, (3H)-thymidine incorporation [1, 14]: 29530 ± 1608 cpm | EC proliferation, (3H)-thymidine incorporation [1, 15]: 9886 ± 2114 cpm | EC proliferation, (3H)-thymidine incorporation [1, 16]: 6585 ± 132 cpm | EC proliferation, (3H)-thymidine incorporation [1, 17]: 3774 ± 299 cpm | EC proliferation, (3H)-thymidine incorporation [1, 6]: 48443 ± 2700 cpm | EC proliferation, (3H)-thymidine incorporation [1, 7]: 7214 ± 1668 cpm | EC proliferation, (3H)-thymidine incorporation [1, 8]: 52126 ± 1258 cpm | EC proliferation, (3H)-thymidine incorporation [1, 9]: 6074 ± 899 cpm | EC proliferation, (3H)-thymidine incorporation [1, 10]: 7663 ± 715 cpm | EC proliferation, (3H)-thymidine incorporation [1, 11]: 1062 ± 325 cpm | bFGF mediated downregulation of ICAM-1 [2]: complete block of bFGF-mediated downregulation

SIQFLKVSLNLDRKQAKWKIIVKLNDGRELSLD [βpep-24]
cell proliferation activity (control of endothelial cell proliferation) [3]: very good at controlling cell proliferation

angiostatin
complete responses ([5]; angiostatin 25 or 50 mg/kg i.p. combined with 10 Gy days 0 and 1): nor did it induce any complete responses | delay in tumor growth ([5]; angiostatin 25 or 50 mg/kg i.p. days -1, 0, 1 combined with 10 Gy days 0 and 1): did not result in any significant delay in tumor growth

interferon-γ inducible protein-10 [IP-10]
EC proliferation, (3H)-thymidine incorporation ([1]; expt 3, 100 μg/ml, 10 ng/ml bFGF, medium 3432 ± 232): 725 ± 95 cpm | effect on ICAM-1 expression, other inhibitors of angiogenesis [2]: the same results

thrombospondin-1 [TSP-1]
EC proliferation, (3H)-thymidine incorporation ([1]; expt 4, 10 μg/ml, 10 ng/ml bFGF, medium 31954 ± 1220): 22338 ± 860 cpm | EC proliferation, (3H)-thymidine incorporation ([1]; expt 4, 10 μg/ml, no bFGF, medium 18904 ± 1501): 8865 ± 639 cpm | EC proliferation, (3H)-thymidine incorporation ([1]; expt 4, 25 μg/ml, 10 ng/ml bFGF, medium 31954 ± 1220): 10267 ± 797 cpm | EC proliferation, (3H)-thymidine incorporation ([1]; expt 4, 25 μg/ml, no bFGF, medium 18904 ± 1501): 5565 ± 349 cpm | effect on ICAM-1 expression, other inhibitors of angiogenesis [2]: the same results
